From ChEMBL document CHEMBL1159177, “Novel A-ring cleaved analogs of oleanolic and ursolic acids which affect growth regulation in NRP.152 prostate cells” (Bioorg Med Chem Lett, 1997)

Assay: In vitro inhibitory concentration against cell proliferation of nonmalignant, nontumerigenic prostate cells (NRP.152)
Type: functional, cell-based
Settings: Rattus norvegicus
Work on C=C(C)[C@@H]1CC[C@]2(C)[C@H](CC=C3C4CC(C)(C)CC[C@]4(C(=O)O)CC[C@]32C)[C@@]1(C)CCC(=O)O (some centres not stated) yielded an IC50 of over 5 µM.
Work on C[C@@H]1CC[C@]2(C(=O)O)CC[C@]3(C)C(=CC[C@@H]4[C@@]5(C)CC[C@H](O)C(C)(C)[C@@H]5CC[C@]43C)C2[C@H]1C (some centres not stated) yielded an IC50 of over 5 µM.
For C=C(C)[C@@H]1CC[C@]2(C)[C@H](CC=C3C4[C@@H](C)[C@H](C)CC[C@]4(C(=O)O)CC[C@]32C)[C@@]1(C)CCC#N (some centres not stated), the IC50 was over 5 µM.
With CC(C)[C@@H]1CC[C@]2(C)[C@H](CC=C3C4CC(C)(C)CC[C@]4(C(=O)O)CC[C@]32C)[C@@]1(C)CCCN (some centres not stated) the IC50 was 0.7 µM.
Work on C=C(C)[C@@H]1CC[C@]2(C)[C@H](CC=C3C4CC(C)(C)CC[C@]4(C(=O)O)CC[C@]32C)[C@@]1(C)CCC=O (some centres not stated) yielded an IC50 of 1.5 µM.
With C=C(C)[C@@H]1CC[C@]2(C)[C@H](CC=C3C4CC(C)(C)CC[C@]4(C(=O)O)CC[C@]32C)[C@@]1(C)CCC#N (some centres not stated) the IC50 was 3.8 µM.
In the case of CC(C)[C@@H]1CC[C@]2(C)[C@H](CC=C3C4[C@@H](C)[C@H](C)CC[C@]4(C(=O)O)CC[C@]32C)[C@@]1(C)CCCN (some centres not stated), the IC50 is reported as 0.3 µM.
C[C@@H]1CC[C@]2(C(=O)O)CC[C@]3(C)C(=CC[C@@H]4[C@@]5(C)CCC(=O)C(C)(C)[C@@H]5CC[C@]43C)C2[C@H]1C (some centres not stated) gave an IC50 of over 5 µM.
With C=C(C)[C@@H]1CC[C@]2(C)[C@H](CC=C3C4[C@@H](C)[C@H](C)CC[C@]4(C(=O)O)CC[C@]32C)[C@@]1(C)CCC(=O)O (some centres not stated) the IC50 was over 5 µM.
Compound C=C(C)[C@@H]1CC[C@]2(C)[C@H](CC=C3C4[C@@H](C)[C@H](C)CC[C@]4(C(=O)O)CC[C@]32C)[C@@]1(C)CCC=O (some centres not stated) has an IC50 of 2.4 µM.
With CC1(C)CC[C@]2(C(=O)O)CC[C@]3(C)C(=CC[C@@H]4[C@@]5(C)CC[C@H](O)C(C)(C)[C@@H]5CC[C@]43C)[C@@H]2C1 [OLEANOLIC_ACID] the IC50 was over 5 µM.
For CC1(C)CC[C@]2(C(=O)O)CC[C@]3(C)C(=CC[C@@H]4[C@@]5(C)CCC(=O)C(C)(C)[C@@H]5CC[C@]43C)[C@@H]2C1 [OLEANONIC ACID], the IC50 was over 5 µM.
